US11285127B2, “Compositions and methods for lowering triglycerides without raising LDL-C levels in a subject on concomitant statin therapy” (Amarin Pharmaceuticals Ireland Limited, priority 2013, dated 2022)

Test system: patients with fasting triglyceride levels >200 mg/dl and <500 mg/dl despite statin therapy
Test: 12-week study: lipid profile (TC, LDL-C, HDL-C, non-HDL-C, VLDL-C, VLDL-TG, RLP-C)
Format: in vivo, human
Details: MITT
Excerpt: Parameters (a)-(z) can be measured in accordance with any clinically acceptable methodology. For example, triglycerides, total cholesterol, HDL-C and fasting blood sugar can be sample from serum and analyzed using standard photometry techniques. VLDL-TG, LDL-C and VLDL-C can be calculated or determined using serum lipoprotein fractionation by preparative ultracentrifugation and subsequent quantitative analysis by refractometry or by analytic ultracentrifugal methodology. Apo A1, Apo B and hsCRP can be determined from serum using standard nephelometry techniques. Lipoprotein (a) can be determined from serum using standard turbidimetric immunoassay techniques. LDL particle number and particle size can be determined using nuclear magnetic resonance (NMR) spectrometry. Remnants lipoproteins and LDL-phospholipase A2 can be determined from EDTA plasma or serum and serum, respectively, using enzymatic immunoseparation techniques. Oxidized LDL, intercellular adhesion molecule-1 and interleukin-2 levels can be determined from serum using standard enzyme immunoassay techniques. These techniques are described in detail in standard textbooks, for example Tietz Fundamentals of Clinical Chemistry, 6th Ed. (Burtis, Ashwood and Borter Eds.), WB Saunders Company.
A multi-center, placebo-controlled, randomized, double-blind, 12-week study was performed to evaluate the efficacy and safety of >96% E-EPA in patients with fasting triglyceride levels >200 mg/dl and <500 mg/dl despite statin therapy (the mean of two qualifying entry values needed to be >185 mg/dl and at least one of the values needed to be >200 mg/dl). The primary objective of the study was to determine the efficacy of >96% E-EPA 2 g daily and 4 g daily, compared to placebo, in lowering fasting TG levels in patients with high risk for cardiovascular disease and with fasting TG levels 200 mg/dl and <500 mg/dl, despite treatment to LDL-C goal on statin therapy.
The secondary objectives of this study were the following: • 1. To determine the safety and tolerability of >96% E-EPA 2 g daily and 4 g daily; • 2. To determine the effect of >96% E-EPA on lipid and apolipoprotein profiles including total cholesterol (TC), non-high-density lipoprotein cholesterol (non-HDL-C), low density lipoprotein cholesterol (LDL-C), high density lipoprotein cholesterol (HDL-C), and […]; • 3. To determine the effect of >96% E-EPA on lipoprotein associated phospholipase A2 (Lp-PLA2) from baseline to week 12; • 4. To determine the effect of >96% E-EPA on low-density lipoprotein (LDL) particle number and size; • 5. To determine the effect of >96% E-EPA on oxidized LDL; • 6. To determine the effect of >96% E-EPA on fasting plasma glucose (FPG) and hemoglobin A1c (HbA1c); • 7. To determine the effect of >96% E-EPA on insulin resistance; • 8. To determine the effect of >96% E-EPA on high-sensitivity C-reactive protein (hsCRP); • 9. To determine the effects of >96% E-EPA 2 g daily and 4 g daily on the incorporation of fatty acids into red blood cell membranes and into plasma phospholipids; • 10. To explore the relationship between baseline fasting TG levels and the reduction in fasting TG levels; and • 11. To explore the relationship between changes of fatty acid concentrations in plasma and red blood cell membranes, and the reduction in fasting TG levels.
The primary efficacy variable for the double-blind treatment period was percent change in TG from baseline to Week 12 endpoint. […]

[1] = AMR 101 2 g + statin, Atorva subgroup
[2] = AMR 101 2 g + statin, Rosuva subgroup
[3] = AMR 101 2 g + statin, Simva subgroup
[4] = AMR 101 2 g + statin, Statin Potency High
[5] = AMR 101 2 g + statin, Statin Potency Low
[6] = AMR 101 2 g + statin, Statin Potency Medium
[7] = AMR 101 2 g + statin, Diabetes No, Week 12 endpoint
[8] = AMR 101 2 g + statin, Diabetes Yes, Week 12 endpoint
[9] = AMR 101 2 g + statin, Non-statin Washout No, Week 12 endpoint
[10] = AMR 101 2 g + statin, Non-statin Washout Yes, Week 12 endpoint
[11] = AMR 101 2 g + statin, baseline TG tertile Highest (≥289.5 mg/dL), Week 12 endpoint
[12] = AMR 101 2 g + statin, baseline TG tertile Lowest (<230.5 mg/dL), Week 12 endpoint
[13] = AMR 101 2 g + statin, baseline TG tertile Middle (230.5 to <289.5 mg/dL), Week 12 endpoint
[14] = AMR101 2 g/d + statin, Week 12 endpoint
[15] = AMR101 2 g/d + statin, percent change from baseline to Week 12 endpoint
[16] = AMR 101 4 g + statin, Atorva subgroup

CC/C=C\C/C=C\C/C=C\C/C=C\C/C=C\CCCC(=O)OCC [AMR101, ethyl eicosapentaenoate]
LDL-C Median % chg from BL [1]: 4.9% | LDL-C, Diff from pbo (Hodges-Lehmann median difference) [1]: 1.1 | LDL-C, EOT (Week 12 endpoint) median [1]: 88.0 | Non-HDL-C Median % chg from BL [1]: 10.5% | Non-HDL-C, Diff from pbo (Hodges-Lehmann median difference) [1]: 2.0 | Non-HDL-C, EOT (Week 12 endpoint) median [1]: 135.0 | LDL-C Median % chg from BL [2]: 4.3% | LDL-C, Diff from pbo (Hodges-Lehmann median difference) [2]: −4.2 | LDL-C, EOT (Week 12 endpoint) median [2]: 87.0 | Non-HDL-C Median % chg from BL [2]: 2.7% | Non-HDL-C, Diff from pbo (Hodges-Lehmann median difference) [2]: −9.0 | Non-HDL-C, EOT (Week 12 endpoint) median [2]: 133.0 | LDL-C Median % chg from BL [3]: 1.8% | LDL-C, Diff from pbo (Hodges-Lehmann median difference) [3]: −4.8 | LDL-C, EOT (Week 12 endpoint) median [3]: 88.0 | Non-HDL-C Median % chg from BL [3]: 0.0% | Non-HDL-C, Diff from pbo (Hodges-Lehmann median difference) [3]: −6.8 | Non-HDL-C, EOT (Week 12 endpoint) median [3]: 133.5 | LDL-C Median % chg from BL [4]: 3.1% | LDL-C, Diff from pbo (Hodges-Lehmann median difference) [4]: −1.7 | LDL-C, EOT (Week 12 endpoint) median [4]: 91.0 | Non-HDL-C Median % chg from BL [4]: 5.4% | Non-HDL-C, Diff from pbo (Hodges-Lehmann median difference) [4]: −3.5 | Non-HDL-C, EOT (Week 12 endpoint) median [4]: 142 | LDL-C Median % chg from BL [5]: 0.9% | LDL-C, Diff from pbo (Hodges-Lehmann median difference) [5]: 7.1 | LDL-C, EOT (Week 12 endpoint) median [5]: 95.0 | Non-HDL-C Median % chg from BL [5]: −2.2% | Non-HDL-C, Diff from pbo (Hodges-Lehmann median difference) [5]: 3.3 | Non-HDL-C, EOT (Week 12 endpoint) median [5]: 135 | LDL-C Median % chg from BL [6]: 2.4% | LDL-C, Diff from pbo (Hodges-Lehmann median difference) [6]: −5.9 | LDL-C, EOT (Week 12 endpoint) median [6]: 85.0 | Non-HDL-C Median % chg from BL [6]: 1.7% | Non-HDL-C, Diff from pbo (Hodges-Lehmann median difference) [6]: −7.1 | Non-HDL-C, EOT (Week 12 endpoint) median [6]: 133 | LDL-C Diff from pbo (median % chg, Hodges-Lehmann) [7]: −3.1% | LDL-C EOT Median [7]: 88.0 mg/dL | LDL-C Median % chg from BL [7]: 2.6% | Non-HDL-C Diff from pbo (median % chg, Hodges-Lehmann) [7]: −8.6% | Non-HDL-C EOT Median [7]: 133 mg/dL | Non-HDL-C Median % chg from BL [7]: −0.7% | LDL-C Diff from pbo (median % chg, Hodges-Lehmann) [8]: −3.8% | LDL-C EOT Median [8]: 87.0 mg/dL | LDL-C Median % chg from BL [8]: 2.2% | Non-HDL-C Diff from pbo (median % chg, Hodges-Lehmann) [8]: −4.4% | Non-HDL-C EOT Median [8]: 135 mg/dL | Non-HDL-C Median % chg from BL [8]: 5.1% | LDL-C Diff from pbo (median % chg, Hodges-Lehmann) [9]: −1.2% | LDL-C EOT Median [9]: 91.5 mg/dL | LDL-C Median % chg from BL [9]: 3.5% | Non-HDL-C Diff from pbo (median % chg, Hodges-Lehmann) [9]: −4.6% | Non-HDL-C EOT Median [9]: 135 mg/dL | Non-HDL-C Median % chg from BL [9]: 3.8% | LDL-C Diff from pbo (median % chg, Hodges-Lehmann) [10]: −6.3% | LDL-C EOT Median [10]: 85.0 mg/dL | LDL-C Median % chg from BL [10]: 2.2% | Non-HDL-C Diff from pbo (median % chg, Hodges-Lehmann) [10]: −6.9% | Non-HDL-C EOT Median [10]: 133 mg/dL | Non-HDL-C Median % chg from BL [10]: 0.0% | LDL-C Diff from pbo (median % chg, Hodges-Lehmann) [11]: −2.0% | LDL-C EOT Median [11]: 85.0 | LDL-C Median % chg from BL [11]: 1.7% | Non-HDL-C Diff from pbo (median % chg, Hodges-Lehmann) [11]: −5.0% | Non-HDL-C EOT Median [11]: 150 | Non-HDL-C Median % chg from BL [11]: 3.0% | LDL-C Diff from pbo (median % chg, Hodges-Lehmann) [12]: −5.7% | LDL-C EOT Median [12]: 92.0 | LDL-C Median % chg from BL [12]: 3.1% | Non-HDL-C Diff from pbo (median % chg, Hodges-Lehmann) [12]: −4.2% | Non-HDL-C EOT Median [12]: 129 | Non-HDL-C Median % chg from BL [12]: 6.9% | LDL-C Diff from pbo (median % chg, Hodges-Lehmann) [13]: −2.6% | LDL-C EOT Median [13]: 86.5 | LDL-C Median % chg from BL [13]: 3.1% | Non-HDL-C Diff from pbo (median % chg, Hodges-Lehmann) [13]: −7.0% | Non-HDL-C EOT Median [13]: 132 | Non-HDL-C Median % chg from BL [13]: −1.2% | HDL-C Week 12 EP Median (IQR) (AMR101 2 g/d + statin): 38.0 (11.0) mg/dL | LDL-C Week 12 EP Median (IQR) (AMR101 2 g/d + statin): 87.0 (27.0) mg/dL | Non-HDL-C Week 12 EP Median (IQR) (AMR101 2 g/d + statin): 134.0 (41.0) mg/dL | RLP-C Week 12 EP Median (IQR) (AMR101 2 g/d + statin): 11.0 (7.0) mg/dL | Total cholesterol Week 12 EP Median (IQR) (AMR101 2 g/d + statin): 175.0 (44.0) mg/dL | VLDL-C Week 12 EP Median (IQR) (AMR101 2 g/d + statin): 44.0 (25.0) mg/dL | VLDL-TG Week 12 EP Median (IQR) (AMR101 2 g/d + statin): 168.0 (98.0) mg/dL | HDL-C Percent change from Baseline Median (IQR) [14]: 0 (19.5) % | LDL-C Percent change from Baseline Median (IQR) [14]: 2.4 (26.1) % | Non-HDL-C Percent change from Baseline Median (IQR) [14]: 2.4 (26.1) % | RLP-C Percent change from Baseline Median (IQR) [14]: −11.1 (40.0) % | Total cholesterol Percent change from Baseline Median (IQR) [14]: 2.1 (19.6) % | VLDL-C Percent change from Baseline Median (IQR) [14]: 1.6 (54.6) % | VLDL-TG Percent change from Baseline Median (IQR) [14]: −2.1 (48.9) % | HDL-C Difference from placebo Estimated median [15]: −2.2% | LDL-C Difference from placebo Estimated median [15]: −3.6% | Non-HDL-C Difference from placebo Estimated median [15]: −5.5% | RLP-C Difference from placebo Estimated median [15]: −16.7% | Total cholesterol Difference from placebo Estimated median [15]: −4.8% | VLDL-C Difference from placebo Estimated median [15]: −10.5% | VLDL-TG Difference from placebo Estimated median [15]: −11.3% | LDL-C Median % chg from BL [16]: 9.0% | LDL-C, Diff from pbo (Hodges-Lehmann median difference) [16]: 2.5 | LDL-C, EOT (Week 12 endpoint) median [16]: 82.5 | Non-HDL-C Median % chg from BL [16]: −6.3%
